In US20070148703A1, “Method of screening remedy for breast cancer” (Genomembrane, Inc., priority 2003, published 2007):
Several values for one entry are separate records, joined by “and”; a condition that tells them apart may be missing. Equal entries are not always repeated.

Experiments:
Assay type in all cases: cell-based, human
MCF-7 cells = assay: MCF-7 cell proliferation with estrone-3-sulfate or estradiol, with or without BSP
Procedure: It was examined whether cell proliferation promoting effect on MCF-7 cells (ATCC-HTB22) by estrone-3-sulfate is inhibited by suppressing intracellular accumulation of estrone-3-sulfate. MCF-7 cells were seeded on a 96-well plate at a concentration of 8×10^4 cells/cm^2, and cultured for 1 day. Then, a medium containing estrone-3-sulfate (Sigma Chemicals) at various concentrations, ranging from 10 pM to 10 μM, and 100 μM of bromosulfophtalein (BSP: Sigma Chemicals), and a medium containing estradiol (Sigma Chemicals) at various concentrations, ranging from 1 pM to 10 nM, and 100 μM of BSP were added respectively, and culture was conducted for 3 more days. Subsequently, cell amount was measured.
However, this is considered to be estrogen activity by BSP itself or metabolite thereof. This effect decreased relatively with the increase of estrogen concentration. […] Accordingly, it is considered that the uptake of estrone-3-sulfate into the cells was inhibited by BSP, and that of estradiol, which is highly lipid-soluble, was not inhibited, and therefore there was no change in cell proliferation promoting effect.

T-47D cells [1] = assay: Inhibition of [3H] estrone-3-sulfate uptake by T-47D cells
Procedure: The cell suspension and a solution containing a radiolabeled test compound in the transport medium were separately incubated at 37° C. for 20 min, then transport was initiated by mixing them. […] Each cell pellet was solubilized in 3 N KOH, and neutralized with HCl. Then, the associated radioactivity was measured by means of a liquid scintillation counter using Clearsol-1 (Nacalai tesque) as a liquid scintillation fluid.
To characterize the substrate specificity of the transport system, the inhibitory effects of hormones, their conjugated metabolites, and various organic compounds on [^3H] estrone-3-sulfate uptake by T-47D cells were examined. The results are shown in (Table 1). In Table 1, values in control (%) are indicated as the ratio in comparison to uptake amount of estrone-3-sulfate in control which was set at 100%. Each value represents the mean±S.E.M. (n=4), and *P<0.05 indicates comparison to control (Student's test).

T-47D cells [2] = assay: T-47D cell proliferation assay
Procedure: (a) T-47D cells were seeded at a density of 8,000 cells/well and cultured. 24 hours after seeding (day 1), estradiol (1 pM, closed triangles), estrone-3-sulfate (100 nM, closed circles), DMSO (0.1, open triangles) or water (open circles) was added. After the designated number of days, T-47D cells were trypsinized and counted.
(b) T-47D cells were proliferated in the presence of various concentrations of estradiol (closed triangles) or estrone-3-sulfate (closed circles), ranging from 10^−16 to 10^−11 M, or from 10^−11 to 10^−6 M, respectively. The cell numbers were counted at day 6 after seeding. Each value represents the mean±S.E.M. (n=3).
T-47D cells were routinely proliferated in RPMI 1640 medium (Sigma Chemicals) containing phenol red and 10% FCS in a humidified incubator at 37° C. and 5% CO2. For the proliferation assay, FCS was incubated with 0.5% dextran-coated charcoal (DCC) at 4° C. overnight, then the medium was decanted and DCC was filtered off (0.2 μm) to remove steroid hormones. This procedure was repeated three times. Then T-47D cells were seeded into 96-well plates at a density of 8,000 cells/well in phenol red-free RPMI 1640 medium containing 2.5% DCC-treated FCS. […] At designated days after seeding, the cells were treated with trypsin, and cell numbers were counted.

T-47D cells [3] = assay: Uptake of estrone-3-sulfate by T-47D cells (time course, cation and concentration dependence); details: 5.1 nM to 50 μM, 37° C., 10 min, saturable uptake; mean±S.E.M.
Procedure: Cultured T-47D cells were incubated at 37° C. over 35 min in medium containing [^3H] estrone-3-sulfate (7.1 nM) with (open circles) or without (closed circles) 1 mM unlabeled estrone-3-sulfate. Each value represents the mean±S.E.M. (n=4). When the error bars are not shown, they are smaller than the symbols.
The uptake rate of [^3H] estrone-3-sulfate (7.1 nM) for 10 min was measured in the presence or absence of extracellular Na^+. Extracellular Na^+ was replaced with K^+, Li^+, or N-methylglucamine^+ (NMG^+). Each value represents the mean±S.E.M. (n=4).
The uptake of estrone-3-sulfate at various concentrations, ranging from 5.1 nM to 50 μM, was measured at 37° C. for 10 min. […]
Transport experiments were performed as described previously (Tamai et al., 2001). […] Then, the associated radioactivity was measured by means of a liquid scintillation counter using Clearsol-1 (Nacalai tesque) as a liquid scintillation fluid.
Cellular protein content was determined according to the method of Bradford by using a BioRad protein assay kit (Hercules) with bovine serum albumin as the standard (Bradford, 1976). […] All data were expressed as means±S.E.M., and statistical analysis was performed by the use of Student's t test with P<0.05 as the criterion of significance. […]

[4] = inhibitor 100 μM, mean±S.E.M. (n=4)
[5] = inhibitor 1000 μM, mean±S.E.M. (n=4)
[6] = inhibitor 5 μM, mean±S.E.M. (n=4)
[7] = inhibitor 50 μM, mean±S.E.M. (n=4)

Row | Structure (SMILES) | [3H] estrone-3-sulfate uptake, Control (%) (T-47D cells [1]; [4]) | [3H] estrone-3-sulfate uptake, Control (%) (T-47D cells [1]; [5]) | [3H] estrone-3-sulfate uptake, Control (%) (T-47D cells [1]; [6]) | [3H] estrone-3-sulfate uptake, Control (%) (T-47D cells [1]; [7]) | inhibitory effect on [3H] estrone-3-sulfate uptake, in words (T-47D cells [1]; concentration not given) | other results
1 | O=C1OC(c2ccc(O)c(S(=O)(=O)O)c2)(c2ccc(O)c(S(=O)(=O)O)c2)c2c(Br)c(Br)c(Br)c(Br)c21 [Bromosulfophtalein] | 18.9 ± 2.8 * % | 14.2 ± 1.2 * % | – | – | – | cell proliferation of MCF-7 cells with 100 μM BSP (MCF-7 cells; 100 μM BSP added simultaneously, low estrone-3-sulfate concentration): cell proliferation promoting effect was observed; cell proliferation promoting effect by BSP (MCF-7 cells; 100 μM BSP plus 10 μM estrone-3-sulfate): inhibited; cell proliferation promoting effect by BSP (MCF-7 cells; 100 μM BSP plus estradiol): no change; [3H] estrone-3-sulfate uptake, Control (%) (T-47D cells [1]; inhibitor 100 μM, mean±S.E.M. (n=4), listed as bromosulfophthalein): 18.9%
2 | C[C@]12CC[C@H](O)CC1=CC[C@@H]1[C@@H]2CC[C@]2(C)C(=O)CC[C@@H]12 [Dehydroepiandrosterone] | – | – | 75.6 ± 3.8 * % | 44.8 ± 8.0 * % | – | –
3 | C[C@H]1O[C@@H](O[C@H]2[C@@H](O)C[C@H](O[C@H]3[C@@H](O)C[C@H](O[C@H]4CC[C@@]5(C)[C@H](CC[C@@H]6[C@@H]5C[C@@H](O)[C@]5(C)[C@@H](C7=CC(=O)OC7)CC[C@]65O)C4)O[C@@H]3C)O[C@@H]2C)C[C@H](O)[C@@H]1O [Digoxin] | – | – | – | – | no effect | [3H] estrone-3-sulfate uptake, Control (%) (T-47D cells [1]; inhibitor 100 μM, DMSO 1%, vs Control (DMSO 1%)): 90.3 ± 3.5%; [3H] estrone-3-sulfate uptake, Control (%) (T-47D cells [1]; inhibitor 1000 μM, DMSO 1%, vs Control (DMSO 1%)): 94.8 ± 4.4%
4 | C[C@]12CC[C@@H]3c4ccc(O)cc4CC[C@H]3[C@@H]1CC[C@@H]2O[C@@H]1O[C@H](C(=O)O)[C@@H](O)[C@H](O)[C@H]1O [Estradiol-17β-glucuronide] | – | – | 73.8 ± 8.7% | 90.4 ± 11.5% | – | inhibitory effect on [3H] estrone-3-sulfate uptake, in words (T-47D cells [1]; 50 μM): no effect
5 | C[C@]12CC[C@@H]3c4ccc(O)cc4CC[C@H]3[C@@H]1CC[C@@H]2O [Estradiol] | – | – | 76.9 ± 4.8 * % | 45.7 ± 5.3 * % | – | –
6 | C[C@]12CC[C@@H]3c4ccc(OS(=O)(=O)O)cc4CC[C@H]3[C@@H]1CCC2=O [Estrone-3-sulfate] | – | – | 34.7 ± 4.3 * % | 6.6 ± 0.9 * % | – | cell proliferation promoting effect on MCF-7 cells (MCF-7 cells; estrogen only (positive control), 3 days): cell proliferation promoting effect was observed; proliferation of T-47D cells compared with solvent alone (T-47D cells [2]; 100 nM): stimulated; EC50 (T-47D cells [2]; 6 days after seeding, nonlinear regression analysis, read-out: median effective concentration (EC50), stimulation of T-47D proliferation): ~17.1 nM and 17.1 nM; Km (T-47D cells [3]): 3.9 ± 0.78 µM; Vmax of estrone-3-sulfate uptake (T-47D cells [3]): 576.3±32.9 pmol/mg protein/10 min; [3H] estrone-3-sulfate uptake, Control (%) (T-47D cells [1]; inhibitor 5 μM, mean±S.E.M. (n=4), listed as estrone-3-sulfate): 34.7%; [3H] estrone-3-sulfate uptake, Control (%) (T-47D cells [1]; inhibitor 50 μM, mean±S.E.M. (n=4), listed as estrone-3-sulfate): 6.6%
7 | C[C@]12CC[C@@H]3c4ccc(O)cc4CC[C@H]3[C@@H]1CCC2=O [Estrone] | – | – | 78.8 ± 3.3 * % | 64.8 ± 7.5 * % | – | –
8 | CC1(C)S[C@@H]2[C@H](NC(=O)Cc3ccccc3)C(=O)N2[C@H]1C(=O)O [Penicillin G] | 83.2 ± 2.0 * % | 75.9 ± 10.5% | – | – | slight inhibitory effects | –
9 | CCCN(CCC)S(=O)(=O)c1ccc(C(=O)O)cc1 [Probenecid] | 103.2 ± 10.2% | 79.1 ± 3.8 * % | – | – | slight inhibitory effects | –
10 | O=C(O)c1ccccc1O [Salicylate] | 94.9 ± 6.0% | 82.7 ± 7.3% | – | – | no effect | –
11 | C[C@H](CCC(=O)NCCS(=O)(=O)O)[C@H]1CC[C@H]2[C@@H]3[C@H](O)C[C@@H]4C[C@H](O)CC[C@]4(C)[C@H]3C[C@H](O)[C@]12C [Taurocholic acid] | 69.3 ± 2.7 * % | 24.1 ± 2.3 * % | – | – | – | [3H] estrone-3-sulfate uptake, Control (%) (T-47D cells [1]; inhibitor 100 μM, mean±S.E.M. (n=4), listed as taurocholic acid): 69.3%
12 | CC[N+](CC)(CC)CC [Tetraethylammonium] | 87.4 ± 1.5 * % | 112.7 ± 18.6% | – | – | no effect | –
13 | Nc1ccc(C(=O)NCC(=O)O)cc1 [p-Aminohippuric acid] | 87.8 ± 1.5% | 112.7 ± 18.6% | – | – | no effect | –
